Assay [1] has as its target T1, Adenosine kinase (Homo sapiens, UniProt P55263). As to the kind of experiment: Inhibitory concentration against adenosine kinase was determined.
The nature of assay [2]: Effective dose to reduce locomotor side effects in animals was determined. The class given is functional.
The species named for assay [3] is Rattus norvegicus. As to the kind of experiment: Effective dose to reduce pain in carregenin induced thermal hyperalgesia assay in rat was determined. The class given is functional.
Assay [4] deals with T1, Adenosine kinase. As to the kind of experiment: Inhibitory concentration against adenosine kinase was determined in cell assay.
A short description of assay [5]: Percent inhibition of the locomotor side effects in animals at 30 umol/kg po was determined. The class given is functional.
The nature of assay [6]: Percent inhibition of the locomotor side effects in animals at 100 umol/kg po was determined. Format: functional.

Molecules are shown by their SMILES.

T1 sequence (P55263 whole entry): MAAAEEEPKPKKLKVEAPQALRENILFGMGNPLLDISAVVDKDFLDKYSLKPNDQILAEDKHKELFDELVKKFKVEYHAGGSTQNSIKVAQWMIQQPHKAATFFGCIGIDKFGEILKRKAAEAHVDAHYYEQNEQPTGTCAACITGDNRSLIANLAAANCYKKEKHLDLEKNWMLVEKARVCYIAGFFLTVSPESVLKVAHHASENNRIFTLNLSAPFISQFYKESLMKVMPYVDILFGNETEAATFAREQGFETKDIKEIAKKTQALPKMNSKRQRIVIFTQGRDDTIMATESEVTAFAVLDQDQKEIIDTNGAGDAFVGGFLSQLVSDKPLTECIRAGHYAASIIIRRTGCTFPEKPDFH

Usually IC50 stands for the concentration needed to halve the response being measured. A high value points to a need for much substance. Usually ED50 stands for the midpoint of the dose-response relation. High values mean weaker potency, low ones greater potency. In the case of `Nc1ncnc2nc(-c3ccc(N4CCC(=NOC5CCOCC5)CC4)nn3)cc(-c3cccc(Br)c3)c12`, the IC50 in assay [1] was found to be 7.1 nM; in assay [4], 52 nM. The ED50 in assay [2] worked out at 7 µmol/kg; in assay [3], 2 µmol/kg.

For orientation: inhibition in vivo means the drop in the measured response relative to a control, in per cent. A lower inhibition in vivo goes with a response near the control. With `Nc1ncnc2nc(-c3ccc(N4C[C@@H](O)[C@@H](O)C4)nc3)cc(-c3cccc(Br)c3)c12`, the IC50 turned out to be 6.5 nM in assay [1] and 130 nM in assay [4]. Moreover, the ED50 in assay [3] was found to be 2 µmol/kg. This compound also had an inhibition in vivo at 30 µmol/kg in assay [5] of 73%.

On to `Nc1ncnc2nc(-c3ccc(N4CC5CC4CO5)nc3)cc(-c3cccc(Br)c3)c12` (stereo unspecified), for which the IC50 in assay [1] came to 7.5 nM; in assay [4], 19.5 nM. Further, the results for the ED50 in assay [2] and in assay [3] were 8 µmol/kg and 2 µmol/kg, respectively.

With `C/C(=N/OC1CCOCC1)C1(O)CCN(c2ccc(-c3cc(-c4cccc(Br)c4)c4c(N)ncnc4n3)cn2)CC1`, the IC50 in assay [1] was 31.7 nM; in assay [4], 43.7 nM. For the same compound, the figures for the ED50 in assay [2] and in assay [3] were 30 µmol/kg and 5 µmol/kg, respectively.

In the case of `CCO[C@H]1CN(c2ccc(-c3cc(-c4cccc(Br)c4)c4c(N)ncnc4n3)nn2)C[C@H]1OCC`, the IC50 in assay [1] came to 7.2 nM; in assay [4], 40.7 nM. The results for the median effective dose (ED50) in assay [2] and in assay [3] were 25 µmol/kg and 3 µmol/kg, respectively.

Consider `Nc1ncnc2nc(-c3ccc(N4CCC5(CC4)COCO5)nc3)cc(-c3cccc(Br)c3)c12`, for which the IC50 in assay [1] stood at 8.3 nM; in assay [4], 378 nM. The ED50 in assay [2] was determined as 6 µmol/kg; in assay [3], 2 µmol/kg.

For `CON=C1CCN(c2ccc(-c3cc(-c4cccc(Br)c4)c4c(N)ncnc4n3)nn2)CC1`, the IC50 turned out to be 18.8 nM in assay [1] and 74.4 nM in assay [4]. For the same compound, the ED50 in assay [2] stood at 6 µmol/kg; in assay [3] it was 13 µmol/kg.

Turning to `Nc1ncnc2nc(-c3ccc(N4CCC(O)(C5CCOC5=O)CC4)nc3)cc(-c3cccc(Br)c3)c12` (stereo unspecified), the IC50 in assay [1] was found to be 8.1 nM; in assay [4], 50.2 nM. Also, the ED50 in assay [3] came out at 4 µmol/kg. In assay [6], this compound returned an inhibition in vivo at 100 µmol/kg of 87%. In assay [5], this compound showed an inhibition in vivo at 30 µmol/kg of 97%.

Turning to `COCCOC1CCN(c2ccc(-c3cc(-c4cccc(Br)c4)c4c(N)ncnc4n3)nn2)CC1`, the IC50 was determined as 15.1 nM in assay [1] and 81.9 nM in assay [4]. In addition, the ED50 in assay [2] amounted to 10 µmol/kg; in assay [3], 3 µmol/kg.

For the compound `Nc1ncnc2nc(-c3ccc(N4CCC(CCOC5CCOCC5)CC4)nn3)cc(-c3cccc(Br)c3)c12`, the IC50 came to 22.8 nM in assay [1] and 89.5 nM in assay [4]. Also, the ED50 worked out at 9 µmol/kg in assay [2] and 30 µmol/kg in assay [3].

Turning to `Nc1ncnc2nc(-c3ccc(N4CCC(COC5CCOCC5)CC4)nn3)cc(-c3cccc(Br)c3)c12`, the IC50 in assay [1] is 2.8 nM; in assay [4], 17.3 nM. Further, the ED50 in assay [2] and in assay [3] was 5 µmol/kg in each case.

For the compound `N#C[C@H]1CN(c2ccc(-c3cc(-c4cccc(Br)c4)c4c(N)ncnc4n3)cn2)C[C@H]1O`, the IC50 came out at 7.5 nM in assay [1] and 496 nM in assay [4]. Moreover, the 50% effect level in assay [3] (ED50) was put at a dose of 4 µmol/kg. Besides, the inhibition in vivo at 30 µmol/kg in assay [5] came to 91%.

With `Nc1ncnc2nc(-c3ccc(N4CCC[C@H]4CO)nn3)cc(-c3cccc(Br)c3)c12`, the results for the IC50 in assay [1] and in assay [4] were 16.2 nM and 154 nM, respectively. In addition, the 50% effect level in assay [3] (ED50) was put at a dose of 10 µmol/kg. This compound also had an inhibition in vivo at 100 µmol/kg in assay [6] of 75%. Moreover, the inhibition in vivo at 30 µmol/kg in assay [5] worked out at 98%.

Take `Nc1ncnc2nc(-c3ccc(N4CCC(=NOC5CCOCC5)CC4)nc3)cc(-c3cccc(Br)c3)c12`: in assay [1], the IC50 was found to be 10 nM. Also, the ED50 in assay [2] is 10 µmol/kg; in assay [3], 2 µmol/kg.

Regarding `CCOC1CCN(c2ccc(-c3cc(-c4cccc(Br)c4)c4c(N)ncnc4n3)nn2)CC1`, the IC50 in assay [1] is 10.4 nM; in assay [4], 51.7 nM. The results for the ED50 in assay [2] and in assay [3] were 20 µmol/kg and 7 µmol/kg, respectively.

The record behind these values is ChEMBL document CHEMBL1136829, “Adenosine kinase inhibitors: polar 7-substitutent of pyridopyrimidine derivatives improving their locomotor selectivity” (Bioorg Med Chem Lett, 2003).
